Structures are written as SMILES.

Sequence of MCL-1/Bim interaction (recombinant human MCL-1 protein, residues 171-327; biotinylated human Bim peptide, residues 51-76) (Q07820 171-327): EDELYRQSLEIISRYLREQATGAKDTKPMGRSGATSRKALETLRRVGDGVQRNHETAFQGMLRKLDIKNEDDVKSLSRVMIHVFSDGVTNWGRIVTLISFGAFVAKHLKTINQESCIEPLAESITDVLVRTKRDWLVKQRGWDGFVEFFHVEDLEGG

The experiment deals with MCL-1/Bim interaction (recombinant human MCL-1 protein, residues 171-327; biotinylated human Bim peptide, residues 51-76) (Homo sapiens (Human), UniProt Q07820). Description: MCL-1/Bim Binding AlphaLISA Assay. The following applies: 0.0625 nM 6xHis-Mcl-1 (171-327), 0.0625 nM biotinylated-Bim peptide. The procedure:
MCL-1/Bim Binding AlphaLISA Assay.
Inhibition of the MCL-1 and Bim interaction was measured in the following AlphaLISA assay.
Recombinant human MCL-1 protein (C-terminal 6×His Tagged Mcl-1 containing residues 171-327) was generated at Gilead Sciences, Inc. (Foster City, Calif.). A biotinylated peptide derived from human Bim (residues 51-76) was purchased from CPC Scientific (Sunnyvale, Calif.). (CPC 834113). AlphaLISA anti-6His-acceptor beads (AL128R), AlphaScreen Streptavidin donor beads (6760002B), and Proxiplate-384 Plus (6008289) were purchased from PerkinElmer.
The AlphaLISA assay was performed in a 384-well Proxiplate in a total volume of […]. The reaction mixture contained 0.0625 nM 6×His-Mcl-1 (171-327), 0.0625 nM biotinylated-Bim peptide, 10 μg/mL AlphaLISA anti-6×His-AlphaLISA acceptor beads, […] AlphaScreen streptavidin donor beads, and serially diluted test compounds in the binding buffer (20 mM Hepes, pH 7.5 (Teknova H1035); 150 mM NaCl (Promega V4221); 0.002% Brij 35 (Thermo Scientific 20150); 1 mM Dithiothreitol (DTT) Solution (Affymetrix 70726); 0.01% BSA (BioLabs B9000S)). 1,000×test compounds were pre-spotted onto 384-well Proxiplate (Labcyte Echo) by Echo 555 Liquid Handler (Labcyte Inc., San Jose, Calif.) followed by incubation of 5 μl Mcl-1(171-327) for 1 hour. Then 5 μL Bim (51-76) was added and incubated for 2 hours. Five μL AlphaLISA anti-6His-AlphaLISA acceptor beads were then added for 1 hour followed by addition of 5 μL AlphaScreen streptavidin donor beads for 1 hour. The reaction plates were then read on an Envision multimode reader (PerkinElmer) using AlphaScreen settings. […] Percent inhibition was calculated as shown below: % Inhibition=100%*(Well−Neg)/(Pos−Neg) Neg: negative control, DMSO Pos: positive control, no Mcl-1 protein, no biotinylated-Bim peptide
For orientation: In Alpha technology, singlet oxygen from a donor bead excites a nearby acceptor bead.
Take `COCC(=O)NS1(=O)=NC(=O)c2ccc3c(c2)N(C[C@@H]2CC[C@H]2[C@@H](OC)/C=C/CCC1)C[C@@]1(CCCc2cc(Cl)ccc21)CO3` (single isomer, unassigned) [Example 8]: the IC50 (commonly the point on the concentration scale where inhibition reaches its midpoint) came to 0.7 nM. Consider `CO[C@H]1/C=C/C[C@H](C)C[S@](N)(=O)=NC(=O)c2ccc3c(c2)N(C[C@@H]2CC[C@H]21)C[C@@]1(CCCc2cc(Cl)ccc21)CO3` (single isomer, unassigned) [Example 109], for which the IC50 was 10.6 nM.

For `CO[C@H]1/C=C/C[C@H](C)[C@@H](C)[S@](N)(=O)=NC(=O)c2ccc3c(c2)N(C[C@@H]2CC[C@H]21)C[C@@]1(CCCc2cc(Cl)ccc21)CO3` (single isomer, unassigned) [Example 110], the IC50 is 2.63 nM.

On to `COc1nn(C)cc1C(=O)NS1(=O)=NC(=O)c2ccc3c(c2)N(C[C@@H]2CC[C@H]2[C@@H](OC)/C=C/C[C@H](C)C1)C[C@@]1(CCCc2cc(Cl)ccc21)CO3` (single isomer, unassigned) [Example 388], for which the 50% inhibitory concentration (IC50) was found to be 1.06 nM. The same measure for `CCn1cc(C(=O)N[S@@]2(=O)=NC(=O)c3ccc4c(c3)N(C[C@@H]3CC[C@H]3[C@@H](OC)/C=C/CCC2)C[C@@]2(CCCc3cc(Cl)ccc32)CO4)cn1` [Example 104]: 0.1 nM. With `CO[C@H]1/C=C/C[C@H](C)C[S@@](=O)(NC(=O)COC2CCOCC2)=NC(=O)c2ccc3c(c2)N(C[C@@H]2CC[C@H]21)C[C@@]1(CCCc2cc(Cl)ccc21)CO3` [Example 106], the IC50 is 0.1 nM.

Regarding `CO[C@H]1/C=C/C[C@H](C)C[S@@](=O)(NC(=O)NCC2CC2)=NC(=O)c2ccc3c(c2)N(C[C@@H]2CC[C@H]21)C[C@@]1(CCCc2cc(Cl)ccc21)CN3` [Example 107], the IC50 is 0.1 nM. Consider `CO[C@H]1/C=C/C[C@H](C)[C@@H](C)[S@@](=O)(NC(=O)COC2CCOCC2)=NC(=O)c2ccc3c(c2)N(C[C@@H]2CC[C@H]21)C[C@@]1(CCCc2cc(Cl)ccc21)CO3` [Example 108], for which the IC50 is 0.1 nM. For `CO[C@H]1/C=C/CCC[S@@](=O)(NC(=O)c2cnn(C)c2)=NC(=O)c2ccc3c(c2)N(C[C@@H]2CC[C@H]21)C[C@@]1(CCCc2cc(Cl)ccc21)CO3` [Example 113] the value was 0.046 nM; for `CO[C@H]1/C=C/C[C@H](C)C[S@@](=O)(NC(=O)N[C@H]2C[C@H]2F)=NC(=O)c2ccc3c(c2)N(C[C@@H]2CC[C@H]21)C[C@@]1(CCCc2cc(Cl)ccc21)CO3` [Example 115], 0.068 nM. On to `CO[C@H]1/C=C/C[C@H](C)C[S@@](=O)(NC(=O)c2cnn(C3CC3)c2)=NC(=O)c2ccc3c(c2)N(C[C@@H]2CC[C@H]21)C[C@@]1(CCCc2cc(Cl)ccc21)CO3` [Example 151], for which the IC50 came out at 0.036 nM. For `COc1nn(C)cc1C(=O)N[S@@]1(=O)=NC(=O)c2ccc3c(c2)N(C[C@@H]2CC[C@H]2[C@@H](OC)/C=C/C[C@H](C)C1)C[C@@]1(CCCc2cc(Cl)ccc21)CO3` [Example 154] the value was 0.05 nM; for `COC1CCCn2cc(C(=O)N[S@@]3(=O)=NC(=O)c4ccc5c(c4)N(C[C@@H]4CC[C@H]4[C@@H](OC)/C=C/C[C@H](C)C3)C[C@@]3(CCCc4cc(Cl)ccc43)CO5)cc2C1` (stereo partly shown) [Example 190], 0.055 nM.

Regarding `CO[C@H]1/C=C/C[C@H](C)C[S@@](=O)(NC(=O)N[C@H]2C[C@@](C)(OC)C2)=NC(=O)c2ccc3c(c2)N(C[C@@H]2CC[C@H]21)C[C@@]1(CCCc2cc(Cl)ccc21)CO3` [Example 193], the IC50 was 0.046 nM. The same measure for `CCOc1nn(C)cc1C(=O)N[S@@]1(=O)=NC(=O)c2ccc3c(c2)N(C[C@@H]2CC[C@H]2[C@@H](OC)/C=C/C[C@H](C)C1)C[C@@]1(CCCc2cc(Cl)ccc21)CO3` [Example 194]: 0.03 nM. The same measure for `COC[C@H]1C[C@H](NC(=O)N[S@@]2(=O)=NC(=O)c3ccc4c(c3)N(C[C@@H]3CC[C@H]3[C@@H](OC)/C=C/C[C@H](C)C2)C[C@@]2(CCCc3cc(Cl)ccc32)CO4)C1` [Example 200]: 0.064 nM.
